The text below walks through data of patent publication US8809333B2, “Imidazole, pyrazole, and triazole derivatives useful as antibacterial agents” (Pfizer Inc., priority 2011, dated 2014).

Broadly, the IC50 is the concentration needed to halve the response being measured. The MIC is the lowest concentration found to suppress growth.

Converted amounts (≈) assume the structure as drawn. Where two headings read alike, the source gives them in different places. Bounds are passed on as bounds.

Experiment [1] deals with T1, Pseudomonas aeruginosa LpxC enzyme (Pseudomonas aeruginosa, UniProt P47205).
T1 construct: made in house; host or cells: E. coli
T1 sequence (P47205 1-303): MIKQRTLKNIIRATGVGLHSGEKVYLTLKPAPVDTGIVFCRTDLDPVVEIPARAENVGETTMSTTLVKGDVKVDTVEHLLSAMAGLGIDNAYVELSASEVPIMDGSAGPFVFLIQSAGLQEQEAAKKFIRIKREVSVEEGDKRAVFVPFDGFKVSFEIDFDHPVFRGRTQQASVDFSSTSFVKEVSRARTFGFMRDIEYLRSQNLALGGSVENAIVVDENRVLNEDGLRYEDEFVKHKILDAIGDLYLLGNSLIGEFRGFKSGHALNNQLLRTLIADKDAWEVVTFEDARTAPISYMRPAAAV
Kind of experiment: IC50 assay, LpxC enzyme from P. aeruginosa (BioTrove RapidFire mass spectrometry). Type of experiment: biochemical. Put shortly: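 P. aeruginosa LpxC reaction run 1 hour, stopped with 1 N HCl, and substrate-to-product conversion quantified by RapidFire mass spectrometry. IC50 calculated from percent conversion using a no-enzyme control.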

Experiment [2] relates to Escherichia coli EC-1: VOGEL, mouse virulent. Nature of the experiment: MIC determination (CLSI), EC-1. Type of experiment: cell-based. Particulars: Escherichia coli, read-out: EC-1 (MIC). The gist of the method:
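Broth dilution MIC per CLSI M7-A8, with 2-fold compound dilutions incubated overnight with a standard inoculum. MIC is the lowest concentration visibly inhibiting growth versus drug-free control; tested in duplicate, reporting the lower value when within 2-fold, with QC organisms and reference compounds required in range.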

In experiment [3] the test system is Pseudomonas aeruginosa UI-18: Wild-type (PA-7). Nature of the experiment: MIC determination (CLSI), PA-7. The conditions noted are these: read-out: PA-7 (MIC). Type of experiment: cell-based. Put shortly: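 Broth dilution MIC per CLSI M7-A8, using 2-fold compound dilutions incubated overnight; MIC is the lowest concentration with no visible growth versus the drug-free control. Run in duplicate, lower value reported when within 2-fold. Control organisms and reference compounds were included for QC.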

Experiment [4] deals with Acinetobacter baumannii/haemolyticus: Multidrug-resistant clinical isolate (AB-3167). Kind of experiment: MIC determination (CLSI), AB-3167. Type of experiment: cell-based. The conditions noted are these: read-out: AB-3167 (MIC). The gist of the method: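 Broth dilution MIC per CLSI M7-A8, 2-fold concentration steps, overnight incubation, visual read of lowest concentration inhibiting growth versus drug-free control. Tested in duplicate; lower value reported if within 2-fold, otherwise repeated; QC organisms and reference drugs required within range.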

Experiment [5] relates to Klebsiella pneumoniae: Ciprofloxacin-resistant isolate, expresses ESBL, clinical isolate (KP-3700). Nature of the experiment: MIC determination (CLSI), KP-3700. Type of experiment: cell-based. Particulars: overnight incubation, lower of duplicate values. Put shortly: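 Broth dilution MIC per CLSI M7-A8 against the ciprofloxacin-resistant, ESBL-expressing clinical isolate, 2-fold concentration steps, overnight incubation, visual read of lowest growth-inhibiting concentration. Tested in duplicate; lower value reported when within 2-fold; control organisms and reference compounds required within range.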

Where [6] appears, read: P. aeruginosa LpxC enzyme 0.1 nM, 25° C., 1 hour, pH 8.0, read-out: PA: IC50.
[7] abbreviates: Pseudomonas aeruginosa UI-18 wild-type, overnight incubation, lower of duplicate values.
The mark [8] stands for this setting: Acinetobacter baumannii/haemolyticus multidrug-resistant clinical isolate, overnight incubation, lower of duplicate values.

Consider `CC(CCn1cc(-c2ccc(C#N)cc2)cn1)(C(=O)NO)S(C)(=O)=O` (stereo not shown) [Example 47, 4-[4-(4-cyanophenyl)-1H-pyrazol-1-yl]-N-hydroxy-2-methyl-2-(methylsulfonyl)butanamide], for which, in experiment [1] (setting [6]), the IC50 was 1.15 nM. The minimum inhibitory concentration (MIC) in experiment [2] is 64 µg/mL (≈ 177 µM); in experiment [3] (setting [7]) it was 4 µg/mL (≈ 11 µM); in experiment [4] (setting [8]), above 64 µg/mL. The “KP-3700 (MIC)” value in experiment [5] was above 64.0 µg/mL.

As for `Cc1cccc(-c2cnn(CCC(C)(C(=O)NO)S(C)(=O)=O)c2)c1` (stereo not shown) [Example 42, N-hydroxy-2-methyl-4-[4-(3-methylphenyl)-1H-pyrazol-1-yl]-2-(methylsulfonyl)butanamide], the 50% inhibitory concentration (IC50) in experiment [1] (setting [6]) is 6.2 nM. The MIC is 64 µg/mL (≈ 182 µM) in experiment [2], 4 µg/mL (≈ 11.4 µM) in experiment [3] (setting [7]) and above 64 µg/mL in experiment [4] (setting [8]). For the same compound, in experiment [5], the “KP-3700 (MIC)” value is above 64.0 µg/mL.

As to `Cc1ccccc1-c1cnn(CCC(C)(C(=O)NO)S(C)(=O)=O)c1` (stereo not shown) [Example 43, N-hydroxy-2-methyl-4-[4-(2-methylphenyl)-1H-pyrazol-1-yl]-2-(methylsulfonyl)butanamide], the IC50 in experiment [1] (setting [6]) is 11.3 nM. For the same compound, the minimum inhibitory concentration (MIC) in experiment [2] was 32 µg/mL (≈ 91.1 µM); in experiment [3] (setting [7]), 16 µg/mL (≈ 45.5 µM); in experiment [4] (setting [8]) it was above 64 µg/mL. Also, the “KP-3700 (MIC)” value in experiment [5] was above 64.0 µg/mL.

In experiment [1], `C[C@@](CCn1cc(-c2cccc(F)c2F)nn1)(C(=O)NO)S(C)(=O)=O` [Example 17, (2R)-4-[4-(2,3-difluorophenyl)-1H-1,2,3-triazol-1-yl]-N-hydroxy-2-methyl-2-(methylsulfonyl)butanamide] had a concentration for half-maximal inhibition (IC50) of 8.08 nM. In addition, the values for the MIC in experiment [2], in experiment [3] (setting [7]) and in experiment [4] (setting [8]) were 32 µg/mL (≈ 85.5 µM), 4 µg/mL (≈ 10.7 µM) and above 64 µg/mL, respectively. Moreover, the “KP-3700 (MIC)” value in experiment [5] turned out to be 64 µg/mL.

In the case of `CC(CCn1cc(-c2ccc(C#N)c(Cl)c2)cn1)(C(=O)NO)S(C)(=O)=O` (stereo not shown) [Example 64, 4-[4-(3-chloro-4-cyanophenyl)-1H-pyrazol-1-yl]-N-hydroxy-2-methyl-2-(methylsulfonyl)butanamide], the IC50 in experiment [1] (setting [6]) worked out at 0.62 nM. Also, the minimal inhibitory concentration (MIC) was 64 µg/mL (≈ 161 µM) in experiment [2], 4 µg/mL (≈ 10.1 µM) in experiment [3] (setting [7]) and above 64 µg/mL in experiment [4] (setting [8]). The “KP-3700 (MIC)” value in experiment [5] was above 64.0 µg/mL.

As to `C[C@@](CCn1cc(-c2ccc(Cl)c(Cl)c2)nn1)(C(=O)NO)S(C)(=O)=O` [Example 21, (2R)-4-[4-(3,4-dichlorophenyl)-1H-1,2,3-triazol-1-yl]-N-hydroxy-2-methyl-2-(methylsulfonyl)butanamide], the IC50 in experiment [1] is 1.67 nM. The figures for the MIC in experiment [2], in experiment [3] (Pseudomonas aeruginosa) and in experiment [4] (Acinetobacter baumannii) were 16 µg/mL (≈ 39.3 µM), 2 µg/mL (≈ 4.91 µM) and above 64 µg/mL, respectively. Further, in experiment [5], the “KP-3700 (MIC)” value came to 32 µg/mL.

Regarding `CC(CCn1cc(-c2ccc3c(c2)C(=O)CCC3)cn1)(C(=O)NO)S(C)(=O)=O` (stereo not shown) [Example 75, N-hydroxy-2-methyl-2-(methylsulfonyl)-4-[4-(8-oxo-5,6,7,8-tetrahydronaphthalen-2-yl)-1H-pyrazol-1-yl]butanamide], the IC50 in experiment [1] (setting [6]) was 7.17 nM. In addition, the minimal inhibitory concentration (MIC) in experiment [2] was above 64 µg/mL; in experiment [3] (setting [7]), 64 µg/mL (≈ 158 µM); in experiment [4] (setting [8]), above 64 µg/mL. In addition, the “KP-3700 (MIC)” value in experiment [5] is above 64.0 µg/mL.

Turning to `CC(CCn1cc(COc2cccc3ccccc23)nn1)(C(=O)NO)S(C)(=O)=O` (stereo not shown) [Example 34, N-hydroxy-2-methyl-2-(methylsulfonyl)-4-{4-[(naphthalen-1-yloxy)methyl]-1H-1,2,3-triazol-1-yl}butanamide], in experiment [1] (setting [6]), the IC50 was 26.3 nM. Moreover, the minimal inhibitory concentration (MIC) in experiment [2], in experiment [3] (setting [7]) and in experiment [4] (setting [8]) was above 64 µg/mL each time. In experiment [5], the “KP-3700 (MIC)” value was above 64.0 µg/mL.

`Cc1ccc(-c2cnn(CCC(C)(C(=O)NO)S(C)(=O)=O)c2)cc1` (stereo not shown) [Example 41, N-hydroxy-2-methyl-4-[4-(4-methylphenyl)-1H-pyrazol-1-yl]-2-(methylsulfonyl)butanamide]: in experiment [1] (setting [6]), the IC50 worked out at 1.26 nM. Further, the figures for the minimal inhibitory concentration (MIC) in experiment [2], in experiment [3] (setting [7]) and in experiment [4] (setting [8]) were 8 µg/mL (≈ 22.8 µM), 2 µg/mL (≈ 5.69 µM) and above 64 µg/mL, respectively. Moreover, in experiment [5], the “KP-3700 (MIC)” value was 64 µg/mL.

Consider `CC(CCn1cc(-c2ccc3c(c2)CCO3)cn1)(C(=O)NO)S(C)(=O)=O` (stereo not shown) [Example 58, 4-[4-(2,3-dihydro-1-benzofuran-5-yl)-1H-pyrazol-1-yl]-N-hydroxy-2-methyl-2-(methylsulfonyl)butanamide], for which the IC50 in experiment [1] (setting [6]) was found to be 1.17 nM. For the same compound, the minimal inhibitory concentration (MIC) in experiment [2] is above 64 µg/mL; in experiment [3] (setting [7]) it was 4 µg/mL (≈ 10.5 µM); in experiment [4] (setting [8]) it was above 64 µg/mL. Further, the “KP-3700 (MIC)” value in experiment [5] was above 64.0 µg/mL.

Regarding `CC(C)(C)c1cccc(OCc2cn(CCC(C)(C(=O)NO)S(C)(=O)=O)nn2)c1` (stereo not shown) [Example 35, 4-{4-[(3-t-butylphenoxy)methyl]-1H-1,2,3-triazol-1-yl}-N-hydroxy-2-methyl-2-(methylsulfonyl)butanamide], in experiment [1] (setting [6]), the IC50 amounted to 24 nM. Also, the minimal inhibitory concentration (MIC) in experiment [2], in experiment [3] (setting [7]) and in experiment [4] (setting [8]) was above 64 µg/mL throughout. Also, in experiment [5], the “KP-3700 (MIC)” value was above 64.0 µg/mL.

For `CC(CCn1cc(-c2ccc3cc[nH]c3n2)cn1)(C(=O)NO)S(C)(=O)=O` (stereo not shown) [Example 57, N-hydroxy-2-methyl-2-(methylsulfonyl)-4-[4-(1H-pyrrolo[2,3-b]pyridin-6-yl)-1H-pyrazol-1-yl]butanamide], in experiment [1] (setting [6]), the IC50 is 3.72 nM. The MIC is above 64 µg/mL in experiment [2], 64 µg/mL (≈ 170 µM) in experiment [3] (setting [7]) and above 64 µg/mL in experiment [4] (setting [8]). For the same compound, the “KP-3700 (MIC)” value in experiment [5] is above 64.0 µg/mL.

With `Cc1nc2ccc(-c3cnn(CCC(C)(C(=O)NO)S(C)(=O)=O)c3)cc2s1` (stereo not shown) [Example 79, N-hydroxy-2-methyl-4-[4-(2-methyl-1,3-benzothiazol-6-yl)-1H-pyrazol-1-yl]-2-(methylsulfonyl)butanamide], in experiment [1] (setting [6]), the IC50 came to 6.22 nM. Also, the values for the minimum inhibitory concentration (MIC) in experiment [2], in experiment [3] (setting [7]) and in experiment [4] (setting [8]) were 64 µg/mL (≈ 157 µM), 16 µg/mL (≈ 39.2 µM) and above 64 µg/mL, respectively. Moreover, the “KP-3700 (MIC)” value in experiment [5] is above 64.0 µg/mL.

Turning to `CC(CCn1cc(-c2ccc3c(c2)OCCO3)cn1)(C(=O)NO)S(C)(=O)=O` (stereo not shown) [Example 63, 4-[4-(2,3-dihydro-1,4-benzodioxin-6-yl)-1H-pyrazol-1-yl]-N-hydroxy-2-methyl-2-(methylsulfonyl)butanamide], in experiment [1] (setting [6]), the concentration for half-maximal inhibition (IC50) turned out to be 6.75 nM. Further, the minimal inhibitory concentration (MIC) in experiment [2] is above 64 µg/mL; in experiment [3] (setting [7]), 4 µg/mL (≈ 10.1 µM); in experiment [4] (setting [8]), above 64 µg/mL. Further, the “KP-3700 (MIC)” value in experiment [5] was above 64.0 µg/mL.

`C[C@@](CCn1cc(-c2cccc(Cl)c2Cl)nn1)(C(=O)NO)S(C)(=O)=O` [Example 19, (2R)-4-[4-(2,3-dichlorophenyl)-1H-1,2,3-triazol-1-yl]-N-hydroxy-2-methyl-2-(methylsulfonyl)butanamide] gave a concentration for half-maximal inhibition (IC50) in experiment [1] of 1.95 nM. The MIC was 8 µg/mL (≈ 19.6 µM) in experiment [2], 4 µg/mL (≈ 9.82 µM) in experiment [3] (Pseudomonas aeruginosa) and above 64 µg/mL in experiment [4] (Acinetobacter baumannii). In experiment [5], the “KP-3700 (MIC)” value was 16 µg/mL.

Turning to `CC(CCn1cc(-c2ccc(-c3cc[nH]n3)cc2)cn1)(C(=O)NO)S(C)(=O)=O` (stereo not shown) [Example 70, N-hydroxy-2-methyl-2-(methylsulfonyl)-4-{4-[4-(1H-pyrazol-3-yl)phenyl]-1H-pyrazol-1-yl}butanamide], the concentration for half-maximal inhibition (IC50) in experiment [1] (setting [6]) amounted to 4.11 nM. The MIC in experiment [2] is 64 µg/mL (≈ 159 µM); in experiment [3] (setting [7]), 32 µg/mL (≈ 79.3 µM); in experiment [4] (setting [8]), above 64 µg/mL. The “KP-3700 (MIC)” value in experiment [5] was above 64.0 µg/mL.

For `CC(CCn1cc(-c2ccc3[nH]c(C(N)=O)cc3c2)cn1)(C(=O)NO)S(C)(=O)=O` (stereo not shown) [Example 87, 5-{1-[4-(hydroxyamino)-3-methyl-3-(methylsulfonyl)-4-oxobutyl]-1H-pyrazol-4-yl}-1H-indole-2-carboxamide], the IC50 in experiment [1] (setting [6]) was 63.6 nM. In addition, the MIC in experiment [2], in experiment [3] (setting [7]) and in experiment [4] (setting [8]) was above 64 µg/mL throughout. The “KP-3700 (MIC)” value in experiment [5] is above 64.0 µg/mL.
